After the bases stand the sugars from the 5' end (letter, count) and the backbone: PS all phosphorothioate, else s phosphorothioate and o phosphodiester by linkage. Methylation of C is not given here. e = 2'-O-(2-methoxyethyl) (MOE); k = constrained ethyl (cEt); d = 2'-deoxy (DNA); m = 2'-O-methyl
Target: HSD17B13
Conditions: ASO, HepaRG

Sequence | target mRNA inhibition (1 µM) [%] | other results
CCTCCACACCGCGCTT (sugars k3 d10 k3, PS) | 16 | –
ATGAGGTTTTGATACC (sugars kkdddddddddkekek, PS) | 51 | –
TATACAGACTAAGGGA (sugars k3 d10 k3, PS) | 24 | –
CTGTGTTAGCTTTAAT (sugars k3 d1 m1 d8 k3, PS) | 41 | –
GATGTAGTGGGAGTCG (sugars k3 d9 k3 e1, PS) | 42 | –
TGACTAATGCAAGATT (sugars k3 d10 k3, PS) | 45 | –
TGTCCAGGTTGAGATA (sugars k3 d1 m1 d8 k3, PS) | 41 | –
TATTATGTGATTGAGT (sugars k3 d9 k3 e1, PS) | 51 | –
GACCAAGGATATATGA (sugars k3 d10 k3, PS) | 48 | –
AATATCCCACAGAACC (sugars k3 d10 k3, PS) | 60 | –
CTCTTGGGTCCATTGT (sugars k3 d10 k3, PS) | 40 | –
GACAATGGTTGCCACT (sugars k3 d10 k3, PS) | 63 | –
TAAGAGGCATGAAAGG (sugars k3 d9 k3 e1, PS) | 36 | –
ATAATAATAGCTCTAT (sugars k3 d10 k3, PS) | 1 | –
ATGTGATTGAGTTCTC (sugars k3 d10 k3, PS) | 36 | –
TTGCAGCATTGATTCG (sugars k3 d10 k3, PS) | 59 | –
TCGATCCTATATACAT (sugars k3 d10 k3, PS) | 40 | –
CGTAGCAAATGTAAGA (sugars k3 d10 k3, PS) | 0 | –
TTTCUTATGTAATAGC (sugars k3 d1 m1 d8 k3, PS) | 50 | –
GATTAATCTTGATGCT (sugars k3 d10 k3, PS) | 26 | –
GTCATAAAGGTGGGAT (sugars k3 d10 k3, PS) | 28 | –
CATCTGTCTCCAATAC (sugars k3 d10 k3, PS) | 32 | –
ACTTGAACAGTCTTAA (sugars k3 d10 k3, PS) | 63 | –
CGTTTATCATATGCTA (sugars k3 d10 k3, PS) | 88 | target mRNA inhibition (0.02 µM): 9%; target mRNA inhibition (0.078 µM): 29%; target mRNA inhibition (0.313 µM): 57%; target mRNA inhibition (1.25 µM): 77%; target mRNA inhibition (5 µM): 86%
ATCTATTATGCACTCT (sugars k3 d10 k3, PS) | 24 | –
ATATGTGAAGAGCTGG (sugars k3 d10 k3, PS) | 51 | –

Sequence | target mRNA inhibition (1 µM) [%] | other results
TGCTACTCTAGGAGAT (sugars k3 d10 k3, PS) | 60 | –
TTCCTCCACACCGCGC (sugars k3 d10 k3, PS) | 47 | –
GGAGTCGGATTATTTT (sugars k3 d10 k3, PS) | 41 | –
ACTAACCAATTATATG (sugars k3 d10 k3, PS) | 6 | –
CAAACCTTGAATGAGT (sugars k3 d10 k3, PS) | 53 | –
ACTGCTGCTAGTGCCA (sugars k3 d10 k3, PS) | 47 | –
ACTGGATGGATTTCTC (sugars k3 d10 k3, PS) | 83 | target mRNA inhibition (0.02 µM): 9%; target mRNA inhibition (0.078 µM): 20%; target mRNA inhibition (0.313 µM): 45%; target mRNA inhibition (1.25 µM): 60%; target mRNA inhibition (5 µM): 88%
GAGGAATGGCTAGGAT (sugars k3 d10 k3, PS) | 47 | –
AGTAATTGCATCTGCT (sugars k3 d10 k3, PS) | 42 | –
TATACATCAACTCCTC (sugars k3 d10 k3, PS) | 39 | –
GACTTGCCTCATTTAG (sugars k3 d10 k3, PS) | 69 | –
GAAACCTTCATGCTAG (sugars k3 d10 k3, PS) | 31 | –
CATAGGCTTAGTGTAG (sugars k3 d10 k3, PS) | 38 | –
GGGCTAGAACTTAAAA (sugars k3 d10 k3, PS) | 35 | –
TATGAAGTTAGTATAG (sugars k3 d10 k3, PS) | 30 | –
GTTATTCTCTTGACAA (sugars k3 d9 k3 e1, PS) | 35 | –
GCCTTGAATAGCAAGC (sugars k3 d10 k3, PS) | 32 | –
CTATAGTAATTGCTAT (sugars k3 d10 k3, PS) | 0 | –
TGCAGCATTGATTCGA (sugars k3 d10 k3, PS) | 47 | –
TCACCTTTCATAATGT (sugars kkdddddddddkekek, PS) | 31 | –
ATGGATCTAGAACACT (sugars k3 d10 k3, PS) | 43 | –
AATTGATACACCAATG (sugars k3 d9 k3 e1, PS) | 53 | –
ACATAGGCTTAGTGTA (sugars k3 d10 k3, PS) | 0 | –
CACATACGCATGCGCA (sugars k3 d10 k3, PS) | 59 | –
CGTTUGACTGCTGCTA (sugars k3 d1 m1 d8 k3, PS) | 54 | –
GAGTGCATCTTAAGAT (sugars k3 d10 k3, PS) | 43 | –

Sequence | target mRNA inhibition (1 µM) [%] | other results
TGAGTTACATTACAGC (sugars k3 d10 k3, PS) | 90 | target mRNA inhibition (0.02 µM): 16%; target mRNA inhibition (0.078 µM): 34%; target mRNA inhibition (0.313 µM): 72%; target mRNA inhibition (1.25 µM): 86%; target mRNA inhibition (5 µM): 89%
TAAATCCAAATCACTC (sugars k3 d10 k3, PS) | 39 | –
GGAGGAGGTACTGTCT (sugars k3 d10 k3, PS) | 44 | –
GATGTTAGGACCCAGT (sugars k3 d10 k3, PS) | 64 | –
GAAGTGCTTTTGTGAT (sugars k3 d10 k3, PS) | 34 | –
TGCAAAATGTGATGCC (sugars k3 d10 k3, PS) | 69 | –
AGAATACGCTGAGAGT (sugars k3 d10 k3, PS) | 56 | –
AGGCTGTAAGAGTCAG (sugars kkdddddddddkekek, PS) | 38 | –
TACGACAGGTCATCTT (sugars k3 d10 k3, PS) | 58 | –
ATAGAGTCGGTCACCT (sugars k3 d10 k3, PS) | 60 | –
GTAATTTTCAGATCCC (sugars k3 d10 k3, PS) | 82 | target mRNA inhibition (0.02 µM): 24%; target mRNA inhibition (0.078 µM): 43%; target mRNA inhibition (0.313 µM): 69%; target mRNA inhibition (1.25 µM): 88%; target mRNA inhibition (5 µM): 88%
CGTTAGGTTTCCAAAT (sugars k3 d10 k3, PS) | 0 | –
TATAGACTGGGTAGGA (sugars kkdddddddddkekek, PS) | 38 | –
GCTATAACTGGAAGGA (sugars k3 d10 k3, PS) | 58 | –
ATTAATCATGGGACAG (sugars k3 d10 k3, PS) | 20 | –
ACCCTTAACAAACCTC (sugars k3 d10 k3, PS) | 36 | –
TGATTAAGCAGAATTG (sugars k3 d10 k3, PS) | 57 | –
ATAGCAAGCCAACAGA (sugars k3 d9 k3 e1, PS) | 30 | –
AGAAAGTTCATTCGAA (sugars k3 d10 k3, PS) | 61 | –
GGGACCAATATAATCC (sugars k3 d10 k3, PS) | 31 | –
AACTGAGCTAGACAAT (sugars k3 d10 k3, PS) | 44 | –
CCTCTAAGTTAGCCCC (sugars k3 d9 k3 e1, PS) | 16 | –
TAGCCAGTACAGTTCC (sugars k3 d9 k3 e1, PS) | 58 | –
GGCTTTATCATTCTAA (sugars k3 d10 k3, PS) | 20 | –
CATTAGATGGTAAGGA (sugars k3 d10 k3, PS) | 32 | –
AGTACAGTTCCTTTTC (sugars k3 d10 k3, PS) | 69 | –

Sequence | target mRNA inhibition (1 µM) [%] | other results
GACTGCTGCTAGTGCC (sugars kkdddddddddkekek, PS) | 35 | –
AAGGAAGAGGCTAGGG (sugars k3 d10 k3, PS) | 57 | –
GCACAAGCACACTGTA (sugars k3 d10 k3, PS) | 7 | –
GTGTAGAATTGTCTGT (sugars k3 d10 k3, PS) | 42 | –
CAGTAAAATTATGCCT (sugars k3 d10 k3, PS) | 38 | –
CTACACTAATATTGAG (sugars k3 d10 k3, PS) | 20 | –
AAGTATTCCATCTATC (sugars k3 d10 k3, PS) | 52 | –
TGAGAATTTAAGAGGG (sugars k3 d10 k3, PS) | 25 | –
GATGAGGTAAGGAATC (sugars k3 d10 k3, PS) | 0 | –
AAGTTAGTATAGTTAT (sugars k3 d10 k3, PS) | 20 | –
AGGTAAACTAAAGTAC (sugars k3 d10 k3, PS) | 6 | –
CTCTATTGGGCCAGGC (sugars k3 d10 k3, PS) | 46 | –
AGTCCATGCAAAAGCA (sugars k3 d10 k3, PS) | 77 | target mRNA inhibition (0.02 µM): 1%; target mRNA inhibition (0.078 µM): 14%; target mRNA inhibition (0.313 µM): 38%; target mRNA inhibition (1.25 µM): 55%; target mRNA inhibition (5 µM): 78%
ATAACTGAGCTAGACA (sugars k3 d10 k3, PS) | 71 | –
GCTTTGAAGACAATAC (sugars k3 d10 k3, PS) | 42 | –
CAAGTAAGGTAAAGTC (sugars k3 d10 k3, PS) | 33 | –
GAGAGAACTTATACAA (sugars k3 d10 k3, PS) | 37 | –
TCACCTTATTAATATC (sugars k3 d10 k3, PS) | 0 | –
ATATTATCAGGACTGA (sugars k3 d10 k3, PS) | 47 | –
TAAGAGGCATGAAAGG (sugars k3 d10 k3, PS) | 52 | –
AGAGGATAGTGAACAT (sugars k3 d10 k3, PS) | 59 | –
TAGTTTGGTGGGCATG (sugars k3 d10 k3, PS) | 28 | –
GTCTAAACATCTCTGG (sugars k3 d1 m1 d8 k3, PS) | 47 | –
TTGATTCGAAACTATT (sugars k3 d10 k3, PS) | 55 | –

— the OligoGym collection
